How the values were obtained:
Format in all cases: functional
SN12C = test: Growth inhibition of human SN12C cells assessed as cell growth at 3X10'-6 M after 48 hrs by sulforhodamine B assay; details: read-out: Activity
T47D [1] = test: Growth inhibition of human T47D cells assessed as cell growth at 3X10'-9 M after 48 hrs by sulforhodamine B assay; details: read-out: Activity
LOX IMVI = test: Growth inhibition of human LOXIMVI cells assessed as cell growth at 3X10'-8 M after 48 hrs by sulforhodamine B assay; details: read-out: Activity
CCRF-CEM = test: Growth inhibition of human CCRF-CEM cells assessed as cell growth at 3X10'-8 M after 48 hrs by sulforhodamine B assay; details: read-out: Activity
UACC-62 = test: Growth inhibition of human UACC62 cells assessed as cell growth at 3X10'-9 M after 48 hrs by sulforhodamine B assay; details: UACC-62, 48 h, read-out: Activity
HT-29 [2] = test: Growth inhibition of human HT-29 cells assessed as cell growth at 3X10'-9 M after 48 hrs by sulforhodamine B assay; details: HT-29, 48 h, read-out: Activity
SF-539 [3] = test: Growth inhibition of human SF539 cells assessed as cell growth at 3X10'-5 M after 48 hrs by sulforhodamine B assay; details: SF-539, 48 h, read-out: Activity
SNB-75 [4] = test: Growth inhibition of human SNB75 cells assessed as cell growth at 3X10'-8 M after 48 hrs by sulforhodamine B assay; details: SNB-75, 48 h, read-out: Activity
HT-29 [5] = test: Growth inhibition of human HT-29 cells assessed as cell growth at 3X10'-5 M after 48 hrs by sulforhodamine B assay; details: HT-29, 48 h, read-out: Activity
CAKI-1 [6] = test: Growth inhibition of human CAKI-1 cells assessed as cell growth at 3X10'-9 M after 48 hrs by sulforhodamine B assay; details: CAKI-1, 48 h, read-out: Activity
A498 = test: Growth inhibition of human A498 cells assessed as cell growth at 3X10'-5 M after 48 hrs by sulforhodamine B assay; details: A498, 48 h, read-out: Activity
PC-3 = test: Growth inhibition of human PC3 cells assessed as cell growth at 3X10'-5 M after 48 hrs by sulforhodamine B assay; details: PC-3, 48 h, read-out: Activity
CAKI-1 [7] = test: Growth inhibition of human CAKI-1 cells assessed as cell growth at 3X10'-8 M after 48 hrs by sulforhodamine B assay; details: CAKI-1, 48 h, read-out: Activity
SF-295 = test: Growth inhibition of human SF295 cells assessed as cell growth at 3X10'-8 M after 48 hrs by sulforhodamine B assay; details: SF-295, 48 h, read-out: Activity
U-251 = test: Growth inhibition of human U251 cells assessed as cell growth at 3X10'-8 M after 48 hrs by sulforhodamine B assay; details: U-251, 48 h, read-out: Activity
CAKI-1 [8] = test: Growth inhibition of human CAKI-1 cells assessed as cell growth at 3X10'-7 M after 48 hrs by sulforhodamine B assay; details: CAKI-1, 48 h, read-out: Activity
SW-620 = test: Growth inhibition of human SW620 cells assessed as cell growth at 3X10'-7 M after 48 hrs by sulforhodamine B assay; details: SW-620, 48 h, read-out: Activity
HCT-116 = test: Growth inhibition of human HCT116 cells assessed as cell growth at 3X10'-8 M after 48 hrs by sulforhodamine B assay; details: HCT-116, 48 h, read-out: Activity
OVCAR-3 [9] = test: Growth inhibition of human OVCAR3 cells assessed as cell growth at 3X10'-9 M after 48 hrs by sulforhodamine B assay; details: OVCAR-3, 48 h, read-out: Activity
T47D [10] = test: Growth inhibition of human T47D cells assessed as cell growth at 3X10'-8 M after 48 hrs by sulforhodamine B assay; details: read-out: Activity
SF-268 = test: Growth inhibition of human SF268 cells assessed as cell growth at 3X10'-9 M after 48 hrs by sulforhodamine B assay; details: SF-268, 48 h, read-out: Activity
A549 = test: Growth inhibition of human A549/ATCC cells assessed as cell growth at 3X10'-8 M after 48 hrs by sulforhodamine B assay; details: A549, 48 h, read-out: Activity
[11] = Growth inhibition of human NCI-ADR-RES cells assessed as cell growth at 3X10'-6 M after 48 hrs by sulforhodamine B assay; details: read-out: Activity
HT-29 [12] = test: Growth inhibition of human HT-29 cells assessed as cell growth at 3X10'-6 M after 48 hrs by sulforhodamine B assay; details: HT-29, 48 h, read-out: Activity
[13] = Growth inhibition of human NCI-ADR-RES cells assessed as cell growth at 3X10'-8 M after 48 hrs by sulforhodamine B assay; details: read-out: Activity
OVCAR-8 = test: Growth inhibition of human OVCAR8 cells assessed as cell growth at 3X10'-9 M after 48 hrs by sulforhodamine B assay; details: OVCAR-8, 48 h, read-out: Activity
RPMI-8226 = test: Growth inhibition of human RPMI8226 cells assessed as cell growth at 3X10'-7 M after 48 hrs by sulforhodamine B assay; details: RPMI-8226, 48 h, read-out: Activity
SF-539 [14] = test: Growth inhibition of human SF539 cells assessed as cell growth at 3X10'-9 M after 48 hrs by sulforhodamine B assay; details: SF-539, 48 h, read-out: Activity
OVCAR-5 = test: Growth inhibition of human OVCAR5 cells assessed as cell growth at 3X10'-7 M after 48 hrs by sulforhodamine B assay; details: OVCAR-5, 48 h, read-out: Activity
SNB-75 [15] = test: Growth inhibition of human SNB75 cells assessed as cell growth at 3X10'-5 M after 48 hrs by sulforhodamine B assay; details: SNB-75, 48 h, read-out: Activity
HOP-92 = test: Growth inhibition of human HOP92 cells assessed as cell growth at 3X10'-9 M after 48 hrs by sulforhodamine B assay; details: HOP-92, 48 h, read-out: Activity
MCF7 = test: Growth inhibition of human MCF7 cells assessed as cell growth at 3X10'-5 M after 48 hrs by sulforhodamine B assay; details: MCF7, 48 h, read-out: Activity
RXF 393 = test: Growth inhibition of human RXF393 cells assessed as cell growth at 3X10'-8 M after 48 hrs by sulforhodamine B assay; details: RXF 393, 48 h, read-out: Activity
HOP-62 = test: Growth inhibition of human HOP62 cells assessed as cell growth at 3X10'-7 M after 48 hrs by sulforhodamine B assay; details: HOP-62, 48 h, read-out: Activity
OVCAR-3 [16] = test: Growth inhibition of human OVCAR3 cells assessed as cell growth at 3X10'-8 M after 48 hrs by sulforhodamine B assay; details: OVCAR-3, 48 h, read-out: Activity
SR = test: Growth inhibition of human SR cells assessed as cell growth at 3X10'-9 M after 48 hrs by sulforhodamine B assay; details: read-out: Activity
NCI-H460 = test: Growth inhibition of human NCI-H460 cells assessed as cell growth at 3X10'-7 M after 48 hrs by sulforhodamine B assay; details: NCI-H460, 48 h, read-out: Activity
IGROV-1 = test: Growth inhibition of human IGROV1 cells assessed as cell growth at 3X10'-6 M after 48 hrs by sulforhodamine B assay; details: IGROV-1, 48 h, read-out: Activity

| Compound | growth at 3 µM (SN12C) [%] | growth at 0.003 µM (T47D [1]) [%] | growth at 0.03 µM (LOX IMVI) [%] | growth at 0.03 µM (CCRF-CEM) [%] | growth at 0.003 µM (UACC-62) [%] | growth at 0.003 µM (HT-29 [2]) [%] | growth at 30 µM (SF-539 [3]) [%] | growth at 0.03 µM (SNB-75 [4]) [%] | growth at 30 µM (HT-29 [5]) [%] | growth at 0.003 µM (CAKI-1 [6]) [%] | growth at 30 µM (A498) [%] | growth at 30 µM (PC-3) [%] | growth at 0.03 µM (CAKI-1 [7]) [%] | growth at 0.03 µM (U-251) [%] | growth at 0.3 µM (CAKI-1 [8]) [%] | growth at 0.3 µM (SW-620) [%] | growth at 0.03 µM (HCT-116) [%] | growth at 0.003 µM (OVCAR-3 [9]) [%] | growth at 0.03 µM (T47D [10]) [%] | growth at 0.003 µM (SF-268) [%] | also measured |
| --- | --- | --- | --- | --- | --- | --- | --- | --- | --- | --- | --- | --- | --- | --- | --- | --- | --- | --- | --- | --- | --- |
| O=C(Nc1cccc(-n2cc(-c3ccncc3)c(-c3ccc(Cl)c(O)c3)n2)c1)Nc1cccc(C(F)(F)F)c1 | 37 | 92 | 95 | 96 | 98 | 99 | -43 | 94 | 1 | 98 | 15 | -3 | 94 | 100 | 91 | 101 | 97 | 96 | 95 | 95 | growth at 0.03 µM (SF-295): 99%; growth at 0.03 µM (A549): 100%; growth at 3 µM [11]: 39%; growth at 3 µM (HT-29 [12]): 96%; growth at 0.03 µM [13]: 97%; growth at 0.003 µM (OVCAR-8): 99%; growth at 0.3 µM (RPMI-8226): 90%; growth at 0.003 µM (SF-539 [14]): 100%; growth at 0.3 µM (OVCAR-5): 105%; growth at 30 µM (SNB-75 [15]): 1%; growth at 0.003 µM (HOP-92): 85%; growth at 30 µM (MCF7): 2%; growth at 0.03 µM (RXF 393): 97%; growth at 0.3 µM (HOP-62): 105%; growth at 0.03 µM (OVCAR-3 [16]): 93%; growth at 0.003 µM (SR): 94%; growth at 0.3 µM (NCI-H460): 94%; growth at 3 µM (IGROV-1): 29% |
| O=C(Nc1cccc(-n2cc(-c3ccncc3)c(-c3ccc(Cl)c(O)c3)n2)c1)Nc1ccc(Cl)c(Cl)c1 | 17 | 97 | 91 | 98 | 99 | 100 | -34 | 92 | 3 | 93 | -26 | 1 | 94 | 100 | 88 | 101 | 100 | 96 | 95 | 93 | growth at 0.03 µM (A549): 100%; growth at 3 µM [11]: 46%; growth at 3 µM (HT-29 [12]): 60%; growth at 0.03 µM [13]: 97%; growth at 0.003 µM (OVCAR-8): 103%; growth at 0.3 µM (RPMI-8226): 90%; growth at 0.003 µM (SF-539 [14]): 92%; growth at 0.3 µM (OVCAR-5): 104%; growth at 30 µM (SNB-75 [15]): -15%; growth at 0.003 µM (HOP-92): 98%; growth at 30 µM (MCF7): 2%; growth at 0.03 µM (RXF 393): 100%; growth at 0.3 µM (HOP-62): 111%; growth at 0.03 µM (OVCAR-3 [16]): 100%; growth at 0.003 µM (SR): 91%; growth at 0.3 µM (NCI-H460): 95%; growth at 3 µM (IGROV-1): 29% |
| COc1cc(-c2nn(-c3cccc(NC(=O)c4ccc(Cl)c(C(F)(F)F)c4)c3)cc2-c2ccncc2)ccc1Cl | 68 | 95 | 91 | 102 | 99 | 90 | -15 | 89 | 3 | 93 | -9 | 11 | 93 | 99 | 85 | 91 | 101 | 104 | 96 | 94 | growth at 0.03 µM (SF-295): 94%; growth at 0.03 µM (A549): 98%; growth at 3 µM [11]: 22%; growth at 3 µM (HT-29 [12]): 51%; growth at 0.03 µM [13]: 94%; growth at 0.003 µM (OVCAR-8): 100%; growth at 0.3 µM (RPMI-8226): 94%; growth at 0.003 µM (SF-539 [14]): 100%; growth at 0.3 µM (OVCAR-5): 90%; growth at 30 µM (SNB-75 [15]): -2%; growth at 0.003 µM (HOP-92): 94%; growth at 30 µM (MCF7): 13%; growth at 0.03 µM (RXF 393): 99%; growth at 0.3 µM (HOP-62): 94%; growth at 0.03 µM (OVCAR-3 [16]): 104%; growth at 0.003 µM (SR): 99%; growth at 0.3 µM (NCI-H460): 98%; growth at 3 µM (IGROV-1): 40% |
